{"source": "patent US20030161893A1", "about": "“PTPase inhibitors and methods of using the same” (priority 2001, published 2003)", "key": {"Tyk2/Stat3": {"tested_on": "Tyk2/Stat3", "assay": "GM-CSF-induced Tyk2/Stat3 tyrosine phosphorylation in SHP-1-deficient cells", "format": "cell-based"}, "LoVo cells": {"tested_on": "LoVo cells", "assay": "Cell growth assay (MTT), LoVo colon cancer cells", "format": "cell-based, human", "conditions": "100 μg/ml, day 6", "protocol": "NIH3T3 (Yi, et al., Blood 85, 87 (1995)), WM9 (Forsberg, et al., Proc. Nat. Acad Sci. USA 90, 393 (1993)), DU145 (Mickey, et al., Cancer Res. 37, 4049 (1977)), LoVo (Drewinko, et al., Cancer Res. 36, 467 (1976)), HEY (Buick, et al., Cancer Res. 45, 3668 (1985)), U251 (Yoshida, et al., Cancer 50, 410 (1982)), A549 (Giard, et al., J. Natl. Cancer Inst. 51, 1417 (1973)) and SK-N-SH (Helson, et al., Cancer Res. 35, 2594 (1975)) cell lines have been described and were cultured in RPMI 1640 supplemented with 10% fetal calf serum (FCS). For measurement of sodium stibogluconate effects on cell growth in vitro, cells were cultured in the absence (−) or presence (+) of various amounts of sodium stibogluconate for 6 days with viable cells quantified by MTT assays (Mosmann, J. Imunol. Methods 65, 55 (1983)). Percentages of growth inhibition by sodium stibogluconate were calculated (+/−×%)."}, "DS cells": {"tested_on": "DS cells", "assay": "Cell proliferation assay (MTT), DS lymphoma cells", "format": "cell-based, human", "conditions": "day 3; IFN-alpha 1,000 u/ml", "protocol": "For cell proliferation assays, cells were grown in 10% FCS culture medium containing various amounts of IFNs and/or sodium stibogluconate in 96 well plates and cultured at 37° C. for 3 or 6 days as indicated. The numbers of viable cells in proliferation assays were determined by MTT assays as described in Phatak et al., J. Immunol. 167, 3391 (2001)."}, "Stat1 [1]": {"tested_on": "Stat1", "assay": "IFN-alpha-induced Stat1 tyrosine phosphorylation, WM35 cells", "format": "cell-based, human", "protocol": "(§1) For induction of Stat1 tyrosine phosphorylation by IFN-alpha in the absence or presence of sodium stibogluconate, cells grown in 10% FCS RPMI 1640 medium at 37° C. were stimulated with IFN-alpha (50 u/ml) for various time points and treated with or without sodium stibogluconate for 5 minutes prior to termination by lysing the cells in cold lysis buffer (1% NP-40; 50 mM Tris, pH 7.4; 100 mM NaCl; 1 mM EDTA, 10% glycerol, 10 mM sodium molybdic acid and 4 mM AEBSF).\n(§2) Cell lysates were prepared by lysing cells in cold lysis buffer for 30 min and cleared by centrifuging at 14,000 rpm at 4° C. for 15 min. For SDS-PAGE, cell lysates were mixed with equal volume of 2×SDS-PAGE sample buffer, heated at 90° C. for 5 min and separated in 10% SDS-PAGE gels. Cellular proteins in SDS-PAGE gels were transferred to nitrocellulose membrane (Schleicher & Schuell, Keene, N.H.), blocked in 5% milk, probed with antibodies and detected by using an enhanced chemiluminescence kit (ECL, Amersham, Arlington Heights, Ill.)."}, "DU145R cells": {"tested_on": "DU145R cells", "assay": "Cell growth assay (MTT), DU145R cells", "format": "cell-based, human", "conditions": "day 6 culture", "protocol": "DU145 cells were cultured in the presence of sodium stibogluconate (100 μg/ml) in 48 well plates for 3 weeks. Cells from a well containing a single colony were transferred to flasks, cultured in sodium stibogluconate-free medium for 3 weeks and used as DU145R cells for further characterization. Growth of DU145R cells in the absence or presence of sodium stibogluconate in day 6 culture was determined by MTT assays. cDNAs of the coding region of PRLs were derived by RT-PCR from DU145 and DU145R cells and sequenced using primers described below."}, "Stat1 [2]": {"tested_on": "Stat1", "assay": "IFN-alpha-induced Stat1 tyrosine phosphorylation, DU145 cells", "format": "cell-based, human", "conditions": "DU145, 5 hours post-stimulation", "protocol": "as §1, §2"}, "Baf3 cells": {"tested_on": "Baf3 cells", "assay": "Baf3 cell proliferation assay", "format": "cell-based, murine", "protocol": "The murine hematopoietic cell line Baf3 was maintained in RPMI 1640 medium supplemented with 10% fetal calf serum (FCS) and murine IL-3 (20 units/ml) as described previously in Damen et al., J. Biol. Chem. 270, 23402 (1995). Human myeloid cell line TF-1 was maintained in RPMI 1640 supplemented with 10% FCS and 40 ng/ml of recombinant human GM-CSF as described previously in Thomassen et al., Clin. Immunol. 95, 85 (2000). For cell proliferation assays, cells were washed in 10% FCS medium twice, resuspended in 10% FCS medium, incubated at 37° C. for 16 hours, and then cultured at 37° C. in 10% FCS medium containing various amounts of cytokines, sodium stibogluconate, or potassium antimonyl tartrate for 3-6 days as indicated. The cell numbers in proliferation assays were determined by an MTT assay or by microscopic cell counting as indicated."}, "Flag-PRL-2": {"target": "T1, Flag-PRL-2 (Homo sapiens, UniProt Q12974)", "T1 construct": "expressed in transfected cells", "T1 sequence (Q12974 whole entry)": "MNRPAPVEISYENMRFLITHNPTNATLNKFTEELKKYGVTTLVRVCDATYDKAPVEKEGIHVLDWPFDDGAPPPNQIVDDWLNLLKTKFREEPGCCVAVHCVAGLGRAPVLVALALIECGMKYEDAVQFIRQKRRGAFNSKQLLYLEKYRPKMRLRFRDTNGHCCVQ", "assay": "Immunocomplex PTPase assay, Flag-PRL-2 NIH3T3 transfectants", "format": "cell-based", "protocol": "Immunocomplex PTPase assays were performed to assess the effects of sodium stibogluconate on intracellular PTPases. Cells were untreated or treated with sodium stibogluconate for 5 minutes, washed with fresh medium and then lysed in cold lysis buffer (50 mM Tris, pH 7.4; 150 mM NaCl; 1% NP40; 2 mM PMSF; 20 ,g/ml of Aprotinin). The lysates were incubated with an anti-Flag antibody in immunoprecipitation assays. The immunocomplexes were collected with protein G sepharose beads (Pharmacia) and washed in cold lysis buffer for 4 times. […] 100 μL of malachite green solution (UBI) was added to each reaction prior to measurement of OD660 to quantify the amounts of free phosphate cleaved by the PTPases from the peptide substrate (Pathak et al., J. Imumol. 167, 3391 (2001)). The remaining 10% contents of individual samples were analyzed by SDS-PAGE/Western blotting to quantify the relative amounts of the phosphatase proteins. […]\nThe effects of sodium stibogluconate on intracellular PTPases were assessed using NIH3T3 or WM9 transfectants. […]"}}}
{"smiles": "O.O.O.O.O.O.O.O.O.O=C([O-])[C@@H]1[O][Sb]2([O-])([O][Sb]34([OH])[O][C@H]([C@H](O)CO)[C@H]([O]3)[C@H](C(=O)[O-])[O]4)[O][C@H]([C@H](O)CO)[C@@H]1[O]2.[Na+].[Na+].[Na+]", "note": "[sodium stibogluconate]", "values": [{"measurement": "GM-CSF-induced Tyk2/Stat3 tyrosine phosphorylation", "setting": "Tyk2/Stat3", "result": "augmented"}, {"measurement": "cell killing, LoVo", "setting": "LoVo cells", "result": "near-complete cell killing"}, {"measurement": "activity against DS cells", "setting": "DS cells", "result": "modest activity"}, {"measurement": "IFN-alpha-induced Stat1 tyrosine phosphorylation", "setting": "Stat1 [1]", "result": "failed to enhance"}, {"measurement": "growth of DU145R cells versus parental DU145", "setting": "DU145R cells", "result": "growth resistance to sodium stibogluconate"}, {"measurement": "IFN-alpha-induced Stat1 tyrosine phosphorylation", "setting": "Stat1 [2]", "result": "Enhanced"}, {"measurement": "IL-3-induced Baf3 growth at high concentration", "setting": "Baf3 cells; 1,000 μg/ml", "result": "suppressed IL-3-induced Baf3 growth"}, {"measurement": "Baf3 proliferation/viability in the absence of IL-3", "setting": "Baf3 cells; day 3 culture", "result": "failed to support cell proliferation or maintain cell viability"}, {"measurement": "time for full removal of effect on intracellular PRL-2 activity", "setting": "Flag-PRL-2; brief treatment, NIH3T3 transfectants", "result": "at least 24 hours"}, {"measurement": "PTPase activity of anti-Flag immunocomplexes, Flag-PRL-2", "setting": "Flag-PRL-2; cells treated 5 min", "result": "lack of PTPase activity"}]}
